Reference: article PMC3059644 (Frontiers in Psychiatry, 2010)
Where two headings read alike, the source gives them in different places. One block for each compound: values may come before it.

Tests used:
adenosine A2A receptors = details: read-out: Ki for adenosine A2A receptors; ref Hutchison et al., 1989; cited from earlier work
adenosine A1 receptors = molecular target: adenosine A1 receptors; set-up: method as in Hutchison et al., 1989; details: ref Hutchison et al., 1989; cited from earlier work
[1] = system: [3H]CGS21680 binding sites; set-up: method as in Cunha et al., 1996, 1997; details: ref Cunha et al., 1996, 1997, cited from earlier work
[2] = system: adenosine A2A receptors versus A1 receptors; details: cited from earlier work
[3] = molecular target: T1, typical adenosine A2A receptors (Rattus norvegicus, UniProt P30543); experiment: [3H]CGS21680 specific binding in rat hippocampus in the presence of DPCPX (typical sites); details: DPCPX used to isolate typical sites
T1 sequence (P30543 whole entry): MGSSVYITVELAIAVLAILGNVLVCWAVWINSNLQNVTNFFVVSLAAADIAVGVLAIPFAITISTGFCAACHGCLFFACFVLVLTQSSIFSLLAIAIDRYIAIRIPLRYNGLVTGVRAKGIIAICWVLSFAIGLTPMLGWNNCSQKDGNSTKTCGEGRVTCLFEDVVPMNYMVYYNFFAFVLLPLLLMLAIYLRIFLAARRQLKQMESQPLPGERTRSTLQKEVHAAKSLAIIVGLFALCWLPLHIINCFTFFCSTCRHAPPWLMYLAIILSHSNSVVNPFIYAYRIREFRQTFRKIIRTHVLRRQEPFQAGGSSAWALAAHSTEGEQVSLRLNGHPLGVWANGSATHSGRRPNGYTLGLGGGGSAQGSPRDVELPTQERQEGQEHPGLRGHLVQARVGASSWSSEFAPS

[4] = molecular target: atypical adenosine A2A receptors; experiment: Displacement of [3H]CGS21680 binding in rat striatum in the presence of CSC (atypical sites)
[5] = system: atypical adenosine A2A receptors; experiment: Displacement of [3H]CGS21680 binding in rat hippocampus in the presence of CSC (atypical sites)
Experimental: The collected tissues were homogenized in about 25 volumes of incubation buffer and centrifuged at 40,000 g for 10 min at 4°C. The pellet was resuspended in the same fresh buffer, homogenized, centrifuged once again and the final pellet stored at −80°C until use. […] Prior to the competition binding assay, the pellet was resuspended in appropriate buffer at the wanted protein concentration and membrane suspension incubated with 5 U/ml adenosine deaminase (ADA, Sigma-Aldrich) for 30 min at 37°C to remove endogenous adenosine. The protein concentration of membrane suspension was determined using the Bradford method (Pierce, Rockford, IL, USA) with bovine albumin as standard. Competition binding experiments with [^3H]CGS21680 were performed by incubating membranes (50–100 μg of protein/sample) with a single concentrations of [^3H]CGS21680 (30 nM) for 2 h at room temperature in a solution containing 50 mM Tris-HCl, pH 7.4, 10 mM MgCl2 and 5 U/ml ADA and various concentrations (ranging from 10^−5 to 10^−12 M) of test compounds. Non-specific binding was determined in the presence of an excess of cold 2-chloroadenosine (Sigma-Aldrich). The binding reactions were stopped by vacuum filtration through GF/B filters, followed by washing of the filters with ice-cold washing buffer (same composition as the binding buffer) and filter-bound radioactivity measured by scintillation spectrometry. Competition studies were performed with the various compounds alone or in the presence of an excess of either CSC or DPCPX (both from Sigma-Aldrich). The compounds were dissolved in 100% DMSO (Sigma-Aldrich) at a concentration of 10 mM and stored at −20°C. An intermediate 100 μM working solution was prepared in water and subsequent scalar working solutions in incubation buffer.

[6] = molecular target: T2, total adenosine A2A receptors (Rattus norvegicus, UniProt P30543); experiment: Displacement of [3H]CGS21680 binding in rat hippocampal membranes, compounds alone (total)
T2 sequence (P30543 whole entry): as above

[7] = molecular target: T2, total adenosine A2A receptors; experiment: Displacement of [3H]CGS21680 binding in rat striatal membranes, compounds alone (total)
adenosine A2B receptor = details: cited from earlier work
A1 and A2A receptors = details: transfected cells; ref Minetti et al., 2005; cited from earlier work
[8] = molecular target: T1, typical adenosine A2A receptors; experiment: Displacement of [3H]CGS21680 binding in rat striatum in the presence of DPCPX (typical sites)

Structure (SMILES): CCNC(=O)[C@H]1O[C@@H](n2cnc3c(N)nc(NCCc4ccc(CCC(=O)O)cc4)nc32)[C@H](O)[C@@H]1O [CGS21680, 2-p-(2-carboxyethyl)phenethyl-amino-5’-N-ethylcarbox-amidoadenosine]
Ki (adenosine A2A receptors): ~22 nM | Ki (adenosine A1 receptors): ~3100 nM

Structure (SMILES): Cn1c(=O)c2c(nc(C=Cc3cccc(Cl)c3)n2C)n(C)c1=O [CSC, 8-(3-chlorostyryl)-caffeine]
loss of potency in inhibiting [3H]CGS21680 binding in hippocampus and cortex versus striatal membranes [1]: 10 fold | A2A/A1 selectivity ([2]; ref Jacobson et al., 1993): 520 fold

effect on [3H]CGS21680 specific binding in hippocampus [3]: completely abolished
Structure (SMILES): CCCn1c(=O)c2[nH]c(C3CCCC3)nc2n(CCC)c1=O [DPCPX, 8-cyclopentyl-1,3-dipropylxanthine]
concentrations displacing most of the [3H]CGS21680 binding in hippocampus and cortex ([1]; hippocampus and cortex, not striatum): low nanomolar concentrations

Structure (SMILES): CCCn1c(=O)c2c(nc(/C=C/c3ccc(OC)c(OC)c3)n2C)n(CCC)c1=O [KF17837, (E)-8-(3,4-dimethoxystyryl)-1,3-dipropyl-7-methylxanthine]
loss of potency in inhibiting [3H]CGS21680 binding in hippocampus and cortex versus striatal membranes [1]: 10 fold | A2A/A1 selectivity ([2]; ref Nonaka et al., 1994): 62 fold

Ki [4]: 74.2 nM | decrease in affinity for atypical binding sites [4]: decreased from two to five fold | binding in hippocampus in the presence of CSC [5]: no binding
Structure (SMILES): CCn1c(=O)c2c(nc(/C=C/c3ccc(OC)c(OC)c3)n2C)n(CC)c1=O [KW6002, (E)-1,3-diethyl-8-(3,4-dimethoxystyryl)-7-methyl-3,7-dihydro-1H-purine-2,6,dione, reference compound]

Structure (SMILES): Nc1nc2c(cnn2CCc2ccccc2)c2nc(-c3ccco3)nn12 [SCH58261, reference compound]
difference in affinity values between striatum and hippocampus [6]: about 200 fold | IC50 [7]: 16.7 nM | Ki [7]: 4.8 nM

Structure (SMILES): CCCCc1nc(N)c2nc(-n3nccn3)n(C)c2n1 [ST1535, 2 butyl-9-methyl-8-(2H-1,2,3-triazol 2-yl)-9H-purin-6-xylamine]
concentrations for A2B receptor higher than those for A2A receptors (adenosine A2B receptor; ref Stasi et al., 2006): about 3 fold | IC50 ([4]; Figure 3, rat striatum, 200 nmol/L CSC, (95% CI)): 256 nM | Ki ([4]; rat striatal membranes, in the presence of CSC, mean (95% CI)): 73 nM | decrease in affinity for atypical binding sites ([4]; striatum, atypical versus total and typical): decreased from two to five fold | Hill coefficients in the hippocampus ([6]; hippocampus): 0.6–0.8 | difference in affinity values between striatum and hippocampus ([6]; total A2A binding, hippocampus versus striatum): about 5 fold | IC50 ([5]; Figure 5, rat hippocampus, 200 nmol/L CSC, (95% CI)): 446 nM | binding in hippocampus in the presence of CSC ([5]; hippocampus, in the presence of CSC): displaced some affinity | Ki ([5]; read-out: Ki values (nM) in hippocampus, Atypical, rat hippocampal membranes, in the presence of CSC, mean (95% CI)): 146 nM | IC50 ([7]; Figure 1, rat striatum, 30 nmol/L [3H]CGS21680, (95% CI), read-out: IC50): 79.6 nM | Ki ([7]; rat striatal membranes, 30 nM [3H]CGS21680, mean (95% CI) of 3-4 experiments, read-out: Ki values (nM) in striatum, Total): 22.8 nM | Hill coefficient, total striatal receptors ([7]; striatum, total): 0.7 | ratio between A1 and A2A receptors (A1 and A2A receptors): about 10 fold | Hill Slope ([8]; Figure 2, rat striatum, 100 nmol/L DPCPX): -1.007 | IC50 ([8]; Figure 2, rat striatum, 100 nmol/L DPCPX, (95% CI)): 118 nM | Ki ([8]; rat striatal membranes, in the presence of DPCPX, mean (95% CI)): 33.7 nM | Hill coefficient, typical striatal receptors ([8]; striatum, typical): around the unit

Structure (SMILES): Nc1nc(NCCc2ccc(O)cc2)nc2nc(-c3ccco3)nn12 [ZM241385, reference compound]
concentrations for A2B receptor higher than those for A2A receptors (adenosine A2B receptor; ref Linden et al., 1999): 22 fold
